Experimental data published in patent US10456407B2, “Combination therapy for treating cancer” (Epizyme, Inc., priority 2015, dated 2019).

System: WSU-DLCL2 cells
Experiment: RT2 Glucocorticoid signaling PCR array, WSU-DLCL2 (WSU) cell line (Table 4c)
Type: cell-based

CCN(c1cc(-c2ccc(CN3CCOCC3)cc2)cc(C(=O)NCc2c(C)cc(C)[nH]c2=O)c1C)C1CCOCC1 [Compound 44]
Ct Values, MERTK (gene MERTK): 31.323
ΔCT (B2M), MERTK (gene MERTK): 11.638
Ct Values, MT2A (gene MT2A): 23.499
ΔCT (B2M), MT2A (gene MT2A): 3.814
ΔΔCT, MT2A (gene MT2A, compared to DMSO): −1.453
Ct Values, NFKBIA (gene NFKBIA): 23.807
ΔCT (B2M), NFKBIA (gene NFKBIA): 4.122
ΔΔCT, NFKBIA (gene NFKBIA, compared to DMSO): 1.201
Ct Values, NR3C1 (gene NR3C1): 23.121
ΔCT (B2M), NR3C1 (gene NR3C1): 3.436
ΔΔCT, NR3C1 (gene NR3C1, compared to DMSO): −0.364
Ct Values, PDCD7 (gene PDCD7): 24.740
ΔCT (B2M), PDCD7 (gene PDCD7): 5.055
ΔΔCT, PDCD7 (gene PDCD7, compared to DMSO): 0.326
Ct Values, PDP1 (gene PDP1): 25.226
ΔCT (B2M), PDP1 (gene PDP1): 5.541
ΔΔCT, PDP1 (gene PDP1, compared to DMSO): −0.380
Ct Values, PER1 (gene PER1): 25.820
ΔCT (B2M), PER1 (gene PER1): 6.135
ΔΔCT, PER1 (gene PER1, compared to DMSO): 0.476
Ct Values, PER2 (gene PER2): 24.837
ΔCT (B2M), PER2 (gene PER2): 5.152
ΔΔCT, PER2 (gene PER2, compared to DMSO): 0.151
Ct Values, PIK3R1 (gene PIK3R1): 24.332
ΔCT (B2M), PIK3R1 (gene PIK3R1): 4.647
ΔΔCT, PIK3R1 (gene PIK3R1, compared to DMSO): 0.363
Ct Values, PLEKHF1 (gene PLEKHF1): 28.660
ΔCT (B2M), PLEKHF1 (gene PLEKHF1): 8.975
ΔΔCT, PLEKHF1 (gene PLEKHF1, compared to DMSO): 1.220
Ct Values, POU2F1 (gene POU2F1): 24.671
ΔCT (B2M), POU2F1 (gene POU2F1): 4.986
ΔΔCT, POU2F1 (gene POU2F1, compared to DMSO): 0.202
Ct Values, POU2F2 (gene POU2F2): 22.678
ΔCT (B2M), POU2F2 (gene POU2F2): 2.993
ΔΔCT, POU2F2 (gene POU2F2, compared to DMSO): −0.680
Ct Values, RASA3 (gene RASA3): 23.208
ΔCT (B2M), RASA3 (gene RASA3): 3.523
ΔΔCT, RASA3 (gene RASA3, compared to DMSO): −0.979
Ct Values, RGS2 (gene RGS2): 24.869
ΔCT (B2M), RGS2 (gene RGS2): 5.184
ΔΔCT, RGS2 (gene RGS2, compared to DMSO): 1.732
Ct Values, RHO8 (gene RHO8): 27.234
ΔCT (B2M), RHO8 (gene RHO8): 7.549
ΔΔCT, RHO8 (gene RHO8, compared to DMSO): −2.725
Ct Values, RPLP0 (gene RPLP0): 15.651
ΔCT (B2M), RPLP0 (gene RPLP0): −4.004
Ct Values, SESN1 (gene SESN1): 25.215
ΔCT (B2M), SESN1 (gene SESN1): 5.530
ΔΔCT, SESN1 (gene SESN1, compared to DMSO): −3.709
Ct Values, SGK1 (gene SGK1): 28.624
ΔCT (B2M), SGK1 (gene SGK1): 8.939
ΔΔCT, SGK1 (gene SGK1, compared to DMSO): 2.810
Ct Values, SLC10A6 (gene SLC10A6): 35.684
ΔCT (B2M), SLC10A6 (gene SLC10A6): 15.999
ΔΔCT, SLC10A6 (gene SLC10A6, compared to DMSO): −1.168
Ct Values, SLC19A2 (gene SLC19A2): 26.125
ΔCT (B2M), SLC19A2 (gene SLC19A2): 6.440
ΔΔCT, SLC19A2 (gene SLC19A2, compared to DMSO): −0.748
Ct Values, SLC22A5 (gene SLC22A5): 26.640
ΔCT (B2M), SLC22A5 (gene SLC22A5): 6.995
ΔΔCT, SLC22A5 (gene SLC22A5, compared to DMSO): −2.496
Ct Values, SNTA1 (gene SNTA1): 24.181
ΔCT (B2M), SNTA1 (gene SNTA1): 4.496
ΔΔCT, SNTA1 (gene SNTA1, compared to DMSO): −0.492
Ct Values, SPHK1 (gene SPHK1): 29.333
ΔCT (B2M), SPHK1 (gene SPHK1): 9.648
ΔΔCT, SPHK1 (gene SPHK1, compared to DMSO): −0.545
Ct Values, SPSB1 (gene SPSB1): 26.952
ΔCT (B2M), SPSB1 (gene SPSB1): 7.267
ΔΔCT, SPSB1 (gene SPSB1, compared to DMSO): −2.896
Ct Values, STAT5A (gene STAT5A): 25.495
ΔCT (B2M), STAT5A (gene STAT5A): 5.810
ΔΔCT, STAT5A (gene STAT5A, compared to DMSO): −0.307
Ct Values, STAT5B (gene STAT5B): 23.453
ΔCT (B2M), STAT5B (gene STAT5B): 3.768
ΔΔCT, STAT5B (gene STAT5B, compared to DMSO): −0.196
Ct Values, TBL1XR1 (gene TBL1XR1): 22.111
ΔCT (B2M), TBL1XR1 (gene TBL1XR1): 2.426
ΔΔCT, TBL1XR1 (gene TBL1XR1, compared to DMSO): 0.274
Ct Values, TNF (gene TNF): 25.079
ΔCT (B2M), TNF (gene TNF): 5.394
ΔΔCT, TNF (gene TNF, compared to DMSO): 1.150
Ct Values, TNFAIP3 (gene TNFAIP3): 26.903
ΔCT (B2M), TNFAIP3 (gene TNFAIP3): 7.218
ΔΔCT, TNFAIP3 (gene TNFAIP3, compared to DMSO): 1.722
Ct Values, TSC22D3 (gene TSC22D3): 25.390
ΔCT (B2M), TSC22D3 (gene TSC22D3): 5.705
ΔΔCT, TSC22D3 (gene TSC22D3, compared to DMSO): −0.359
Ct Values, USP2 (gene USP2): 21.903
ΔCT (B2M), USP2 (gene USP2): 2.218
ΔΔCT, USP2 (gene USP2, compared to DMSO): −0.978
Ct Values, USPS4 (gene USPS4): 26.807
ΔCT (B2M), USPS4 (gene USPS4): 7.122
ΔΔCT, USPS4 (gene USPS4, compared to DMSO): 0.023
Ct Values, VDR (gene VDR): 27.293
ΔCT (B2M), VDR (gene VDR): 7.608
ΔΔCT, VDR (gene VDR, compared to DMSO): −3.044
Ct Values, VLDLR (gene VLDLR): 32.346
ΔCT (B2M), VLDLR (gene VLDLR): 12.661
ΔΔCT, VLDLR (gene VLDLR, compared to DMSO): 3.859
Ct Values, ZFP36 (gene ZFP36): 25.541
ΔCT (B2M), ZFP36 (gene ZFP36): 5.856
ΔΔCT, ZFP36 (gene ZFP36, compared to DMSO): 0.939
Ct Values, ZHX3 (gene ZHX3): 24.831
ΔCT (B2M), ZHX3 (gene ZHX3): 5.146
ΔΔCT, ZHX3 (gene ZHX3, compared to DMSO): −1.178
Ct Values, ZNF281 (gene ZNF281): 23.913
ΔCT (B2M), ZNF281 (gene ZNF281): 4.228
ΔΔCT, ZNF281 (gene ZNF281, compared to DMSO): −0.329
